These results are taken from publication PMC8400542, “Anti-Inflammatory, Antipyretic, and Analgesic Properties of Potamogeton perfoliatus Extract: In Vitro and In Vivo Study” (Molecules, 2021).

A short description of assay [1]: Total antioxidant capacity (TAC) ELISA kit assay. Conditions: mean ± SE. How it is done:
The antioxidant potential of the extract was evaluated by determining its TAC using a TAC ELISA kit (MBS726896, my BioSource, Inc., San Diego, CA, USA) in accordance with the manufacturer’s instructions and compared to the standard antioxidant, ascorbic acid as previously described Sobeh et al..
On the technique in general: In an ELISA, binding on a coated surface is turned into a signal by an enzyme label.

The subject of assay [2] is heat-induced nociceptive pain in mice. In words: Hot plate test (central antinociception). Conditions: 10 mg/kg. For orientation: Thermal pain tests record how soon the animal reacts.
Procedure: To investigate the possible central analgesic activity of the studied extract, the hot plate test was performed according to Sobeh et al. [3]. […] One hour later, each individual mouse was placed on a hot plate preheated at 55 ± 1 °C and observed for any response to the heat-induced nociceptive pain (licking the fore and hind paws, hind paw lifting, or jumping). […] The overall antinociceptive activity of the extract was estimated by calculating the area under the curve (AUC) for the latency responses at the stated time points using GraphPad Prism.
(B) Hot plate response latency (s) assay. (C) AUC of response latency shown in panel (B).
For assay [3], the system named is Brewer's yeast-induced pyrexia in mice. Kind of assay: Brewer's yeast-induced pyrexia. The assay is classed as in vivo, mouse. Conditions: 150 mg/kg. How it is done:
Pyrexia in mice was induced as previously reported by Liu et al. with minor modifications. The animals’ initial rectum temperature was determined using a lubricated digital thermometer. Suspension of Brewer’s yeast was prepared in normal saline (30%) and injected subcutaneously behind the neck of the animal (1 mL/100 g). After 18 h, rectal temperatures of the mice were determined again (T0). […] Pyretic animals received P. perfoliatus extract (200, 400, and 600 mg/kg, orally), paracetamol (150 mg/kg), or vehicle. Rectal temperatures were measured at 30 min, 1, 2, 3 and 24 h following the different treatments.

In assay [4] the test system is carrageenan-induced leukocyte migration in mice. The settings on record: cited from earlier work.
For assay [5], the target named is 5-lipoxygenase (LOX). Kind of assay: Lipoxygenase inhibition, enzyme immunoassay kit. The assay is classed as biochemical. Conditions: mean ± SE. How it is done: The in vitro enzymatic activities were determined, utilizing enzyme immunoassay kits (Cayman Chemical, Ann Arbor, MI, USA) following the manufacturer’s instructions and the study by Adellall et al..
In assay [6] the test system is carrageenan-induced leukocyte migration in mice. In words: Carrageenan-induced leukocyte migration into the peritoneal cavity. The assay is classed as in vivo, mouse. Conditions: 20 mg/kg, p.o. How it is done:
Three hours later, the mice were euthanized, and each peritoneal cavity was washed with 3 mL of phosphate-buffered saline (PBS) containing 1 mM EDTA. The total leukocyte count was determined in each peritoneal cavity wash using a hemocytometer and presented as number of cells/mL [3].
Figure 3 (A) Results from P. perfoliatus extract on carrageenan-induced leukocyte migration into the peritoneal cavity in mice (total number × 10^6). […] (B) Results from P. perfoliatus extract on acetic acid-induced vascular permeability. Mice received different treatments 1 h before acetic acid (0.6%, i.p.) and Evans blue dye injections. The amount of dye extravasation into the abdominal cavity was quantified and used as an indicator of inflammation degree. The results are shown as means ± SEM (n = 5–6). * p < 0.05 compared to saline group. ^# p < 0.05 compared to control (carrageenan or acetic acid only treated group).

Assay [7] relates to acetic acid-induced vascular permeability in mice. Kind of assay: Acetic acid-induced vascular permeability (Evans blue). The assay is classed as in vivo, mouse. The settings on record: 20 mg/kg, p.o., compared to control mice. How it is done: To study the effect of the extract on the vascular phase of inflammation, acetic acid-induced vascular permeability was performed as described previously by Sobeh et al.. […] One hour later, Evans blue (0.25% solution in normal saline, 0.2 mL) was injected in the tail vein. Acetic acid (0.6% in normal saline, 1 mL/100 g) was then injected after 30 min in the peritoneal cavity of the treated mice. The normal control was injected with normal saline only. Mice were euthanized 30 min later by cervical dislocation, the abdominal cavities were washed with 3 mL saline solution and the collected washings were then centrifuged at 3000 rpm for 10 min. The vascular permeability is proportional to the absorbance of Evans blue dye in the supernatant, which was measured at 610 nm using a plate reader (Biotek, Winooski, VT, USA).
Figure 3 (A) Results from P. perfoliatus extract on carrageenan-induced leukocyte migration into the peritoneal cavity in mice (total number × 10^6). […] (B) Results from P. perfoliatus extract on acetic acid-induced vascular permeability. Mice received different treatments 1 h before acetic acid (0.6%, i.p.) and Evans blue dye injections. The amount of dye extravasation into the abdominal cavity was quantified and used as an indicator of inflammation degree. […]

Assay [8] concerns acetic acid-induced writhing in mice. In words: Acetic acid-induced abdominal writhing. Conditions: 20 mg/kg, p.o. On the technique in general: An intraperitoneal irritant provokes the stretching counted in writhing tests.
Procedure: The peripheral analgesic activity of the extract was evaluated by the acetic acid-induced writhing model in mice according to Sobeh et al. [3]. […] The number of writhes, manifested as extension of hind legs, constriction of abdomen, or turning of trunk was evaluated within 25 min. The reduction in the number of writhes as compared to the control group is indicative of the analgesic potential of the extract [3]. The percent inhibition of writhing was calculated using the following formula as previously reported [18]. % Analgesic activity = (mean writhing count (control-treatment)/mean writhing count (control)).
The data results were quantified at one-hour intervals after administration of either the extract (200 and 400 mg/kg, p.o.) or nalbuphine (10 mg/kg, p.o.).
Assay [9] relates to carrageenan-induced paw edema in rats. The settings on record: 20 mg/kg, compared to the control group; cited from earlier work.

Each structure is given as a SMILES string.

For `O=C1O[C@H]([C@@H](O)CO)C(O)=C1O` [Ascorbic acid], the TAC in assay [1] was found to be 28.27 ± 1.83 U/L.
Turning to `Oc1ccc2c3c1O[C@H]1[C@@H](O)CC[C@@]4(O)[C@@H](C2)N(CC2CCC2)CC[C@]314` [nalbuphine], in [2], the “increase in AUC of thermal response latency vs control” value worked out at 154.7%.
Take `CC(=O)Nc1ccc(O)cc1` [Paracetamol]: the “Rectal Temperature Recorded Following Different Treatments” value in [3] (0.5 h) came out at 38.14 ± 0.19 °C; in [3] (1 h), 37.50 ± 0.31 °C; in [3] (2 h), 37.12 ± 0.29 °C; in assay [3] (3 h), 36.96 ± 0.24 °C; in [3] (24 h) it was 36.50 ± 0.22 °C. Further, the “Rectal Temperature” value in assay [3] (18 h after yeast injection (T0, before treatment)) came to 38.60 ± 0.18 °C.
Turning to `O=C(O)/C=C/c1ccc(O)c(O)c1` [caffeic acid], the “effect on leukocyte migration” value in assay [4] is recorded as “inhibited leukocyte migration”.
For the molecule `O=C(O)Cc1ccccc1Nc1c(Cl)cccc1Cl` [Diclofenac], the “LOX IC50” value in assay [5] came out at 2.83 ± 0.07 µg/mL. Besides, the “decrease of the number of leukocytes” value in assay [6] was found to be 42%. The “inhibition of vascular permeability” value in [7] stood at 67%. Further, in [8], the “reduction of the control writhes” value came to 67%.
Take `O=C(O)c1ccc(O)cc1` [p-Hydroxybenzoic acid]: in assay [9], the “effect on edema thickness” value is given as “significantly decreased the edema thickness”.
Take `O=C(/C=C/c1ccc(O)c(O)c1)O[C@@H]1C[C@](O)(C(=O)O)C[C@@H](O)[C@H]1O` [chlorogenic acid]: the “effect on leukocyte migration” value in assay [4] was “inhibited leukocyte migration”.
